Assay results taken from ChEMBL document CHEMBL4373740, “Synthesis and biological evaluation of new MET inhibitors with 1,6-naphthyridinone scaffold” (Eur J Med Chem, 2020).

How the values were obtained:
[1] = molecular target: Proto-oncogene tyrosine-protein kinase Src (Homo sapiens) (UniProt P12931); test: Inhibition of recombinant full length human untagged SRC expressed in baculovirus expression system at 1 uM using biotin as substrate preincubated for 5 mins followed by substrate addition and measured after 30 to 60 mins in presence of ATP by HTRF assay relative to control
Sequence of Proto-oncogene tyrosine-protein kinase Src (Homo sapiens) (P12931 2-536 limits assumed): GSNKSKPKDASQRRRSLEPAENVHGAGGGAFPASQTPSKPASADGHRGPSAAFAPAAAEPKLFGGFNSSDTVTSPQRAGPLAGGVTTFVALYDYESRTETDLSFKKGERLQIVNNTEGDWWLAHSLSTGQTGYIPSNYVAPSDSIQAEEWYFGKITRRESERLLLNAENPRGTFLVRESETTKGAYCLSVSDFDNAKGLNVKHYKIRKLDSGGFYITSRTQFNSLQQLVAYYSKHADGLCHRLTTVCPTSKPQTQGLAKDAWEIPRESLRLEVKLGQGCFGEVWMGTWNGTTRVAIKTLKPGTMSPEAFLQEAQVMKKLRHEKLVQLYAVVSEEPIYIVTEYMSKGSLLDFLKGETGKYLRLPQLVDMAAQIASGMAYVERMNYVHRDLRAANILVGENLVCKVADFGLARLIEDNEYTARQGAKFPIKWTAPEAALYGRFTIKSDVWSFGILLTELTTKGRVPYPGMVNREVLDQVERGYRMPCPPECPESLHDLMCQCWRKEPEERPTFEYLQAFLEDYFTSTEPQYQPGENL

[2] = molecular target: Tyrosine-protein kinase Lyn (Homo sapiens) (UniProt P07948); test: Inhibition of recombinant human N-terminal GST-tagged LYN A expressed in insect cells at 1 uM using biotin as substrate preincubated for 5 mins followed by substrate addition and measured after 30 to 60 mins in presence of ATP by HTRF assay relative to control
Sequence of Tyrosine-protein kinase Lyn (Homo sapiens) (P07948 2-512 limits assumed): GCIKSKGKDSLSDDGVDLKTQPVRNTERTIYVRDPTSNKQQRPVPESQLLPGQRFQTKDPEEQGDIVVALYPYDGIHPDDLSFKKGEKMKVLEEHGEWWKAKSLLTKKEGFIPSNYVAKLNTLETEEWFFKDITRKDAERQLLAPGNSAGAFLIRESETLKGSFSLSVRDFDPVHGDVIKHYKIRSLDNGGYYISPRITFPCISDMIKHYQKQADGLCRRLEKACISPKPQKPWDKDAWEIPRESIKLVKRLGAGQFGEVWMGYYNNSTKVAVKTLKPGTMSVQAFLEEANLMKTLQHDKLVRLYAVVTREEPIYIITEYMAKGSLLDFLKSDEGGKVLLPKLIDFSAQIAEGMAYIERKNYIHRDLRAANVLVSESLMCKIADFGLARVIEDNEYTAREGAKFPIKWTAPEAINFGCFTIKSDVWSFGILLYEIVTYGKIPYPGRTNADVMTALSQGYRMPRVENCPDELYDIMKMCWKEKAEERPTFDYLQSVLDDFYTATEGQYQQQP

[3] = molecular target: Tyrosine-protein kinase ABL1 (Homo sapiens) (UniProt P00519); test: (§1) Inhibition of recombinant full length human His-tagged ABL1 expressed in baculovirus expression system at 1 uM using biotin as substrate preincubated for 5 mins followed by substrate addition and measured after 30 to 60 mins in presence of ATP by HTRF assay relative to control
Sequence of Tyrosine-protein kinase ABL1 (Homo sapiens) (P00519 whole entry): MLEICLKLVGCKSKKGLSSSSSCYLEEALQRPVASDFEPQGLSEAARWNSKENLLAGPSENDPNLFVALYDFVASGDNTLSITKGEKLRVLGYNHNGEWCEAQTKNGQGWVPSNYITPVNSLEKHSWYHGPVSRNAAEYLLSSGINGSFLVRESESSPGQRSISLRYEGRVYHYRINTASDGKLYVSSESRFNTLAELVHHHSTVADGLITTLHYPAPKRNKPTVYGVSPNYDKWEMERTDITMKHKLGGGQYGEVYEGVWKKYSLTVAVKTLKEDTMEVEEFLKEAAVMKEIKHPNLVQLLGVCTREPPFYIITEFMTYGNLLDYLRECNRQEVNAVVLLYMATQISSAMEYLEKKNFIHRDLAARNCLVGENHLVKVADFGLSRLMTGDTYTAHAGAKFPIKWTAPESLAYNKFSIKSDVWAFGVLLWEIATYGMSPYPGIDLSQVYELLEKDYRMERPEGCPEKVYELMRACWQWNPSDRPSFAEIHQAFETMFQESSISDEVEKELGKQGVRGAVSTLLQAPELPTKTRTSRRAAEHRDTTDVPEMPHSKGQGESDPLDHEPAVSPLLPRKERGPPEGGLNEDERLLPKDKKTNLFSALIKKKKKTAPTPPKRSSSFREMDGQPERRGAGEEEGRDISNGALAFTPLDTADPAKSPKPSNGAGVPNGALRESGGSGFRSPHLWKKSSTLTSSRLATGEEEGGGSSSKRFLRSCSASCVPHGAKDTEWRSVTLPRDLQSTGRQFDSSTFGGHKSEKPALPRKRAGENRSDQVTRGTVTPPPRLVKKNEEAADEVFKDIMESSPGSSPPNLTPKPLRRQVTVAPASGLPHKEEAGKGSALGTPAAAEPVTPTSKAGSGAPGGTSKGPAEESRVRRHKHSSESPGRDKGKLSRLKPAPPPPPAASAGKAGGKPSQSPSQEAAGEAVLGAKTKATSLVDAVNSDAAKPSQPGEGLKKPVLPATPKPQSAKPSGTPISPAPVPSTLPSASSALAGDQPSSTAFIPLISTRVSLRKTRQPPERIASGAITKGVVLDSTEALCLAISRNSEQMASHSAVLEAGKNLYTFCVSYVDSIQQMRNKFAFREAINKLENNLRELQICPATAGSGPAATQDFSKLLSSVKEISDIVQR

[4] = molecular target: Serine/threonine-protein kinase B-raf (Homo sapiens) (UniProt P15056); test: Inhibition of recombinant full length human GST-tagged BRAF expressed in baculovirus expression system at 1 uM using biotin as substrate preincubated for 5 mins followed by substrate addition and measured after 30 to 60 mins in presence of ATP by HTRF assay relative to control
[5] = molecular target: High affinity nerve growth factor receptor (Homo sapiens, UniProt P04629); test: as §1, with “recombinant” for “recombinant full length”, “TRKA catalytic domain (441 to 796 residues)” for “ABL1”
[6] = molecular target: Proto-oncogene tyrosine-protein kinase receptor Ret (Homo sapiens) (UniProt P07949); test: Inhibition of recombinant human GST/His6-tagged RET (658 to 1114 residues) expressed in baculovirus infected Sf9 insect cells at 1 uM using biotin as substrate preincubated for 5 mins followed by substrate addition and measured after 30 to 60 mins in presence of ATP by HTRF assay relative to control
[7] = molecular target: Aurora kinase B (Homo sapiens) (UniProt Q96GD4); test: Inhibition of recombinant full length human His-tagged Aurora B expressed in baculovirus expression system at 1 uM using biotin as substrate preincubated for 5 mins followed by substrate addition and measured after 30 to 60 mins in presence of ATP by HTRF assay relative to control
Sequence of Aurora kinase B (Homo sapiens) (Q96GD4 whole entry): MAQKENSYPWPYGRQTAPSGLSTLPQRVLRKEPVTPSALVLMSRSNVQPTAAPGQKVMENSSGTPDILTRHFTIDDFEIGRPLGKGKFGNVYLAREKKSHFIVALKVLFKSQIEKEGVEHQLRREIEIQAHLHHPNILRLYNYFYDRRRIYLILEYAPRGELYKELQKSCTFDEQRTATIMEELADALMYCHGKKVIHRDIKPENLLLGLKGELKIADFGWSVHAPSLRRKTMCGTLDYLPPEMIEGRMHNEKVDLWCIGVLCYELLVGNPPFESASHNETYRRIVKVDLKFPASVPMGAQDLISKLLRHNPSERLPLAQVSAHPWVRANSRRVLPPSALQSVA

[8] = Tmax in Sprague-Dawley rat at 5.0 mg/kg, ig measured for 15 min to 72 hrs by LC-MS/MS analysis; format: ADME, organism-based; details: in vivo, po
[9] = molecular target: Tyrosine-protein kinase Lyn (Homo sapiens) (UniProt P07948); test: Inhibition of recombinant full length human GST-tagged LYN B expressed in baculovirus expression system at 1 uM using biotin as substrate preincubated for 5 mins followed by substrate addition and measured after 30 to 60 mins in presence of ATP by HTRF assay relative to control
[10] = Antiproliferative activity against human NIH-H460 cells at 10 uM incubated for 72 hrs by MTT assay relative to control; format: functional; details: NIH-H460, 72 h
[11] = Cmax in Sprague-Dawley rat at 5.0 mg/kg, ig measured for 15 min to 72 hrs by LC-MS/MS analysis; format: ADME, organism-based; set-up: dose 5 mg/kg, route intragastric; details: in vivo, po
[12] = molecular target: Aurora kinase A (Homo sapiens) (UniProt O14965); test: Inhibition of recombinant full length human His-tagged Aurora A expressed in baculovirus expression system at 1 uM using biotin as substrate preincubated for 5 mins followed by substrate addition and measured after 30 to 60 mins in presence of ATP by HTRF assay relative to control
Sequence of Aurora kinase A (Homo sapiens) (O14965 whole entry, the tested form may be a part): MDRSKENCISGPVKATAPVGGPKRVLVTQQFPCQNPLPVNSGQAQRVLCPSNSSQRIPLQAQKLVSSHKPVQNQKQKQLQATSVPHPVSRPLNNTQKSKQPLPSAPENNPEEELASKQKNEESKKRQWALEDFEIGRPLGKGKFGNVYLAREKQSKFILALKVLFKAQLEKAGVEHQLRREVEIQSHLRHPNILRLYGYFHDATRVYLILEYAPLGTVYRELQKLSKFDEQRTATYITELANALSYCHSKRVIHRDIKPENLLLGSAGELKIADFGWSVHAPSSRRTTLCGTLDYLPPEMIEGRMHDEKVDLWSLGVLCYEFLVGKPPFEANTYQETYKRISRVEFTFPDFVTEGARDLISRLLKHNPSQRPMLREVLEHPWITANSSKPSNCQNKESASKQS

[13] = molecular target: Vascular endothelial growth factor receptor 3 (Homo sapiens, UniProt P35916); test: Inhibition of recombinant human GST-tagged FLT4 catalytic domain (800 to 1297 residues) expressed in baculovirus expression system using biotin as substrate preincubated for 5 mins followed by substrate addition and measured after 30 to 60 mins in presence of ATP by HTRF assay
[14] = Mean residence time in Sprague-Dawley rat at 5.0 mg/kg, ig measured for 15 min to 72 hrs by LC-MS/MS analysis; format: ADME, organism-based; details: in vivo, po
[15] = molecular target: BDNF/NT-3 growth factors receptor (Homo sapiens, UniProt Q16620); test: as §1, with “recombinant” for “recombinant full length”, “TRKB catalytic domain (526 to 838 residues)” for “ABL1”
[16] = molecular target: Ephrin type-B receptor 4 (Homo sapiens) (UniProt P54760); test: Inhibition of recombinant full length human His-tagged EPHB4 expressed in baculovirus expression system at 1 uM using biotin as substrate preincubated for 5 mins followed by substrate addition and measured after 30 to 60 mins in presence of ATP by HTRF assay relative to control
Sequence of Ephrin type-B receptor 4 (Homo sapiens) (P54760 whole entry): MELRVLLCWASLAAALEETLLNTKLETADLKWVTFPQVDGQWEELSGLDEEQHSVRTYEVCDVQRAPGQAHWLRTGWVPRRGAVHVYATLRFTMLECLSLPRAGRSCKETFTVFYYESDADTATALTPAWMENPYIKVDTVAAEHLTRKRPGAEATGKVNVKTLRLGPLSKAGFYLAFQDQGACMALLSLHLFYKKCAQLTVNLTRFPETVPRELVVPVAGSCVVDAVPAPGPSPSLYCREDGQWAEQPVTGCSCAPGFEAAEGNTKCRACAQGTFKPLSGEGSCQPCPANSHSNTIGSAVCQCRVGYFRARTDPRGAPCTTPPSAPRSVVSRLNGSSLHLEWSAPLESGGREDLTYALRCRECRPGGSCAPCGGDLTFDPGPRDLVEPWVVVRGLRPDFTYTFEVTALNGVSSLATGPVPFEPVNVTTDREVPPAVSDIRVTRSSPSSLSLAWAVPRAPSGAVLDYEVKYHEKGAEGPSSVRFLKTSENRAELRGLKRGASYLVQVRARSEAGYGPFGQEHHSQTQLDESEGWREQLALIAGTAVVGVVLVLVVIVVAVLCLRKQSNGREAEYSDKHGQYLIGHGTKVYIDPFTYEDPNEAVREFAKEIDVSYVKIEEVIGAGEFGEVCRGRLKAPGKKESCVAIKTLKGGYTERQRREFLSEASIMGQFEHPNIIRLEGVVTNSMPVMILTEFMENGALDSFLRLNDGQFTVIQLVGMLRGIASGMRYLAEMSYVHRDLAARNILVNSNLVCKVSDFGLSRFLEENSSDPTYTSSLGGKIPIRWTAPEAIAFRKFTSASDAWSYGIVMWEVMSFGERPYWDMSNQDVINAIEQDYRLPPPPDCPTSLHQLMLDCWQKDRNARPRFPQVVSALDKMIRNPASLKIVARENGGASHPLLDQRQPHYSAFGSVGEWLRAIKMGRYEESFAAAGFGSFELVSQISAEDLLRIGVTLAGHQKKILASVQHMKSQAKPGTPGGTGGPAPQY

[17] = Oral bioavailability in Sprague-Dawley rat at 5.0 mg/kg, ig measured for 15 min to 72 hrs by LC-MS/MS analysis; format: ADME, organism-based; details: in vivo
[18] = molecular target: Tyrosine-protein kinase receptor UFO (Homo sapiens) (UniProt P30530); test: Inhibition of recombinant […] human N-terminal GST-tagged AXL (473 to end residues) expressed in baculovirus infected Sf21 insect cells at 1 uM using biotin as substrate preincubated for 5 mins followed by substrate addition and measured after 30 to 60 mins in presence of ATP by HTRF assay relative to control
[19] = molecular target: Mitogen-activated protein kinase kinase kinase 20 (Homo sapiens) (UniProt Q9NYL2); test: Inhibition of recombinant full length human GST-tagged ZAK expressed in baculovirus expression system at 1 uM using biotin as substrate preincubated for 5 mins followed by substrate addition and measured after 30 to 60 mins in presence of ATP by HTRF assay relative to control
[20] = molecular target: Tyrosine-protein kinase CSK (Homo sapiens) (UniProt P41240); test: Inhibition of recombinant full length human His-tagged CSK at 1 uM using biotin as substrate preincubated for 5 mins followed by substrate addition and measured after 30 to 60 mins in presence of ATP by HTRF assay relative to control
Sequence of Tyrosine-protein kinase CSK (Homo sapiens) (P41240 2-450 limits assumed): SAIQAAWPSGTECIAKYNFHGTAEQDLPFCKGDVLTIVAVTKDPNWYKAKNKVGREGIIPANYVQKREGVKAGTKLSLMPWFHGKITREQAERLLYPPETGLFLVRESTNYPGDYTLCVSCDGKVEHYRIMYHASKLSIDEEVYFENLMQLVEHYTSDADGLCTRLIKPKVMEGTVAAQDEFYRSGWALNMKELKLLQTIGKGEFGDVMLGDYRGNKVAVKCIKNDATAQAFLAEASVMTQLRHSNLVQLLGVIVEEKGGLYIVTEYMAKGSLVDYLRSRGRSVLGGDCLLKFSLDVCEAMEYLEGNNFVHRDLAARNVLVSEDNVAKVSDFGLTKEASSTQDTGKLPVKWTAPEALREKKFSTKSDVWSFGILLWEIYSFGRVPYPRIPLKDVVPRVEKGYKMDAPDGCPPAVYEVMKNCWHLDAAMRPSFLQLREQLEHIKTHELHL

[21] = molecular target: Macrophage-stimulating protein receptor (Homo sapiens, UniProt Q04912); test: Inhibition of recombinant human GST-tagged RON expressed in baculovirus system at 1 uM using biotin as substrate preincubated for 5 mins followed by substrate addition and measured after 30 to 60 mins in presence of ATP by HTRF assay relative to control
[22] = molecular target: Tyrosine-protein kinase JAK2 (Homo sapiens) (UniProt O60674); test: Inhibition of recombinant full length human GST-tagged JAK2 expressed in baculovirus expression system at 1 uM using biotin as substrate preincubated for 5 mins followed by substrate addition and measured after 30 to 60 mins in presence of ATP by HTRF assay relative to control
[23] = molecular target: Serine/threonine-protein kinase PLK3 (Homo sapiens) (UniProt Q9H4B4); test: Inhibition of recombinant full length human GST-tagged PLK3 expressed in baculovirus expression system at 1 uM using biotin as substrate preincubated for 5 mins followed by substrate addition and measured after 30 to 60 mins in presence of ATP by HTRF assay relative to control
Sequence of Serine/threonine-protein kinase PLK3 (Homo sapiens) (Q9H4B4 whole entry, looked up): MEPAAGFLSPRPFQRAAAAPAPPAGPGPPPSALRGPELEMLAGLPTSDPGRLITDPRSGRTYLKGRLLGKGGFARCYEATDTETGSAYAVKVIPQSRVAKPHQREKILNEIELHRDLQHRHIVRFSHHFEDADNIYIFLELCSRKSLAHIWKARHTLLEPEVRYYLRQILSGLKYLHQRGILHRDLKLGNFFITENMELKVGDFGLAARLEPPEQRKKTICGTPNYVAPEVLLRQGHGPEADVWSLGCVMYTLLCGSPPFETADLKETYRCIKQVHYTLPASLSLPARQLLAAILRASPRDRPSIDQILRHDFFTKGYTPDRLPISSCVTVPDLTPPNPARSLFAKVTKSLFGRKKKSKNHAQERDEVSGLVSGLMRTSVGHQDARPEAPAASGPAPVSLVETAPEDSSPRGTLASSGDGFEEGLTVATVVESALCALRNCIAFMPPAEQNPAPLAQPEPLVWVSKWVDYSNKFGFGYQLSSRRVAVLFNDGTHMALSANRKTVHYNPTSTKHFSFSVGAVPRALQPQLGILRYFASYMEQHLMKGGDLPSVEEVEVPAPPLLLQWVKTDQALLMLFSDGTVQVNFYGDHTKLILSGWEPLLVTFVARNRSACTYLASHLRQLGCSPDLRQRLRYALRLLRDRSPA

[24] = molecular target: Ribosomal protein S6 kinase alpha-5 (Homo sapiens) (UniProt O75582); test: Inhibition of recombinant full length human GST-tagged RPS6KA5 expressed in baculovirus expression system at 1 uM using biotin as substrate preincubated for 5 mins followed by substrate addition and measured after 30 to 60 mins in presence of ATP by HTRF assay relative to control

For `Cn1cc(-c2ccc(F)cc2)c(=O)c2c(Nc3ccc(Oc4ccnc(NC(=O)C5CC5)c4)c(F)c3)nccc21`, which inhibition [1] is on record?
The inhibition was under 50%.

And the inhibition [2]?
The inhibition was under 50%.

And the inhibition [3]?
Its inhibition is under 50%.

What about the inhibition [4] of the same molecule?
Its inhibition is under 50%.

And the inhibition [5]?
The inhibition was over 80%.

And the inhibition [6]?
The inhibition was under 50%.

And the inhibition [7]?
Its inhibition is under 50%.

What about the Tmax [8] of the same molecule?
The Tmax was 8.7 h.

What about the inhibition [9] of the same molecule?
The inhibition was under 50%.

What about the inhibition at 10 µM [10] of the same molecule?
Its inhibition at 10 µM is 15.6%.

And the Cmax [11]?
The Cmax was 7800 ng/mL.

What about the inhibition [12] of the same molecule?
Its inhibition is under 50%.

And the IC50 [13]?
The IC50 was 591 nM.

What about the MRT [14] of the same molecule?
Its MRT is 32.4 h.

And the inhibition [15]?
The inhibition was over 80%.

And the inhibition [16]?
The inhibition was 50 to 79%.

What about the bioavailability [17] of the same molecule?
Its bioavailability is 58%.

And the inhibition [18]?
The inhibition was over 80%.

What about the inhibition [19] of the same molecule?
The inhibition was under 50%.

What about the inhibition [20] of the same molecule?
Its inhibition is under 50%.

What about the inhibition [21] of the same molecule?
Its inhibition is 50 to 79%.

What about the inhibition [22] of the same molecule?
The inhibition was under 50%.

And the inhibition [23]?
Its inhibition is under 50%.

And the inhibition [24]?
Its inhibition is under 50%.
